ChEMBL document CHEMBL1149136, “Design and syntheses of 1,6-naphthalene derivatives as selective HCMV protease inhibitors” (J Med Chem, 2004)
pIC50: −log10 of the molar value.

Legend:
[1] = molecular target: T1, Capsid scaffolding protein (Human cytomegalovirus (strain AD169) (HHV-5) (Human herpesvirus 5), UniProt P16753); experiment: Inhibitory concentration against HCMV protease.; type: functional, Human herpesvirus 5 strain AD169
T1 sequence (P16753 whole entry): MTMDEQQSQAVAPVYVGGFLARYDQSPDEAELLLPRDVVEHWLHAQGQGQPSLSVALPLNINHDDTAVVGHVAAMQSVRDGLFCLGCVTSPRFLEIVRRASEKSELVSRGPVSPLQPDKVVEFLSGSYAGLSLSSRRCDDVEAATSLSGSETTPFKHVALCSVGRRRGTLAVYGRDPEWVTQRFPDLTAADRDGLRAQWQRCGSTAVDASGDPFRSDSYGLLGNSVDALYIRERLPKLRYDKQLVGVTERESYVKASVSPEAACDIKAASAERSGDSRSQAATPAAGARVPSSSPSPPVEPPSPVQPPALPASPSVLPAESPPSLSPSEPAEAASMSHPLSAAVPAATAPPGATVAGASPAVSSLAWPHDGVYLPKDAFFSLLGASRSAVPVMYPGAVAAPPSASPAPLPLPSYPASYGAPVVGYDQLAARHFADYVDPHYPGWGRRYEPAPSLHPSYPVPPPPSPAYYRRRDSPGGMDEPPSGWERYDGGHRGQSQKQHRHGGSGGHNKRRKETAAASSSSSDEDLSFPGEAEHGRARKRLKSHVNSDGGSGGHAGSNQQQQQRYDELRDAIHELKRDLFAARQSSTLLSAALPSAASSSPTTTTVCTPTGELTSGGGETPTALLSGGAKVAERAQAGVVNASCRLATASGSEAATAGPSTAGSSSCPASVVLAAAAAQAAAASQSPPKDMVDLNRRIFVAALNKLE

[2] = molecular target: Serine protease 1 (Homo sapiens) (UniProt P07477); experiment: Compound was tested for inhibition of trypsin
[3] = Compound was tested for inhibition of chymotrypsinogen
[4] = Inhibitory concentration against elastase; type: functional

Chain of Serine protease 1 (Homo sapiens) (P07477 whole entry): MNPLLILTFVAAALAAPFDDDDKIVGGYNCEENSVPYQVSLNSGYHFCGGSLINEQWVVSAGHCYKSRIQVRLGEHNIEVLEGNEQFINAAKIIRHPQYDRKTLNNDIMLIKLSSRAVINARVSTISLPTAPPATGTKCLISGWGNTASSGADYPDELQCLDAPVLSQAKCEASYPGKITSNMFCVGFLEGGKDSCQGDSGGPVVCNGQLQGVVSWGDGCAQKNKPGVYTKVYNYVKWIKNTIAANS

Row | SMILES | pIC50 [1] | Activity [2] [µM] | Activity [3] [µM] | pIC50 [4]
1 | O=C(Nc1ccc2c(/C=C/c3ccc4ccc(Cl)cc4n3)cccc2c1)NS(=O)(=O)c1ccc(Cl)cc1 | 5.33 | – | – | –
2 | O=C(O)c1ccc(CNc2ccc3c(COc4cccc(Cl)c4)cccc3c2)cc1 | 5.51 | > 80 | > 50 | –
3 | O=C(O)c1ccc(C(=O)Nc2ccc3c(COc4cccc(C(F)(F)F)c4)cccc3c2)cc1 | 4.82 | – | – | –
4 | O=C(O)c1ccc(C(=O)Nc2ccc3c(COc4cccc(Cl)c4)cccc3c2)cc1 | 4.82 | – | – | –
5 | O=S(=O)(Nc1ccc2c(/C=C/c3ccccn3)cccc2c1)C(F)(F)F | 4.18 | – | > 160 | < 4.30
6 | O=C(O)c1ccc(CNc2ccc3c(/C=C/c4cccc(C(F)(F)F)c4)cccc3c2)cc1 | 5.16 | – | – | –
7 | O=C(O)c1ccc(C(=O)Nc2ccc3c(/C=C/c4cccc(C(F)(F)F)c4)cccc3c2)cc1 | 5.16 | – | – | –
8 | Cc1ccc(S(=O)(=O)NC(=O)Nc2ccc3c(/C=C/c4ccc5ccc(Cl)cc5n4)cccc3c2)cc1 | 5.08 | – | – | –
9 | O=S(=O)(Nc1ccc2c(/C=C/c3cc(Cl)c4ccccc4n3)cccc2c1)C(F)(F)F | 4.98 | – | – | < 4.30
10 | O=C(O)c1ccc2c(/C=C/c3ccc4ccccc4n3)cccc2c1 | < 4.30 | – | – | –
11 | O=C(O)c1ccc(CNc2ccc3c(/C=C/c4ccc5ccc(Cl)cc5n4)cccc3c2)cc1 | 5.57 | – | – | –
12 | O=C(O)c1ccc(C(=O)Nc2ccc3c(OCc4cccc(Br)c4)cccc3c2)cc1 | 5.21 | > 80 | > 50 | –
13 | O=S(=O)(Nc1ccc2c(/C=C/c3ccc4ccccc4n3)cccc2c1)C(F)(F)F | 5.02 | – | – | < 4.30
14 | Nc1ccc2c(/C=C/c3ccc4ccc(Cl)cc4n3)cccc2c1 | < 4.30 | – | – | –
15 | CS(=O)(=O)Nc1ccc2c(/C=C/c3ccc4cc(Cl)ccc4n3)cccc2c1 | < 4.30 | – | – | –
16 | O=C(O)c1ccc(C(=O)Nc2ccc3c(OCc4cccc(C(F)(F)F)c4)cccc3c2)cc1 | 5.13 | > 80 | > 50 | –
17 | O=C(O)c1ccc(C(=O)Nc2ccc3c(COc4ccc(Br)cc4)cccc3c2)cc1 | 4.67 | – | – | –
18 | CC(=O)Nc1ccc2c(/C=C/c3ccc4cc(Cl)ccc4n3)cccc2c1 | 4.37 | – | – | –
19 | CN(C)c1ccc2nc(/C=C/c3cccc4cc(NS(=O)(=O)C(F)(F)F)ccc34)ccc2c1 | 5.43 | – | – | < 4.30

Row | SMILES | pIC50 [1] | Activity [2] [µM] | Activity [3] [µM] | pIC50 [4]
20 | O=S(=O)(Nc1ccc2c(/C=C/c3ccc4cccc(Cl)c4n3)cccc2c1)C(F)(F)F | 5.49 | – | – | < 4.30
21 | O=C(O)c1ccc(CNc2ccc3c(COc4ccc(Br)cc4)cccc3c2)cc1 | 5.55 | > 80 | > 50 | –
22 | O=C(Nc1ccc2c(/C=C/c3ccc4ccc(Cl)cc4n3)cccc2c1)NS(=O)(=O)c1ccccc1 | 5.17 | – | – | –
23 | O=S(=O)(Nc1ccc2c(/C=C/c3ccc4ccccc4c3)cccc2c1)C(F)(F)F | 4.82 | – | – | < 4.30
24 | O=C(O)c1ccc(C(=O)Nc2ccc3c(OCc4cccc(Cl)c4)cccc3c2)cc1 | 5.29 | > 80 | > 50 | –
25 | O=S(=O)(Nc1ccc2c(/C=C/c3ccc4cc(Cl)ccc4n3)cccc2c1)C(F)(F)F | 5.49 | – | – | < 4.30
26 | O=S(=O)(Nc1ccc2c(/C=C/c3cccc(C(F)(F)F)c3)cccc2c1)C(F)(F)F | 5.19 | – | – | < 4.30
27 | CN(c1ccc2c(/C=C/c3ccc4cc(Cl)ccc4n3)cccc2c1)S(=O)(=O)C(F)(F)F | < 4.30 | – | – | –
28 | O=S(=O)(Nc1ccc2c(/C=C/c3ccccc3)cccc2c1)C(F)(F)F | 5.12 | – | – | < 4.30
29 | COc1ccc2nc(/C=C/c3cccc4cc(NS(=O)(=O)C(F)(F)F)ccc34)ccc2c1 | 5.47 | – | – | < 4.30
30 | O=S(=O)(Nc1ccc2c(/C=C/c3ccc4ccc(Cl)cc4n3)cccc2c1)C(F)(F)F | 4.82 | – | – | < 4.30
31 | O=C(O)c1ccc(CNc2ccc3c(COc4ccccc4)cccc3c2)cc1 | 5.32 | > 80 | > 50 | –
32 | O=C(Nc1ccc2c(/C=C/c3ccc4ccc(Cl)cc4n3)cccc2c1)c1ccccc1 | < 4.30 | – | – | –
33 | O=C(Nc1ccc2c(/C=C/c3ccc4cc(Cl)ccc4n3)cccc2c1)Oc1ccccc1 | < 4.30 | – | – | –
34 | O=C(O)c1ccc(C(=O)Nc2ccc3c(/C=C/c4ccc5ccc(Cl)cc5n4)cccc3c2)cc1 | 4.76 | – | – | –
35 | Cc1ccc2nc(/C=C/c3cccc4cc(NS(=O)(=O)C(F)(F)F)ccc34)ccc2c1 | 5.20 | – | – | < 4.30
36 | COc1cccc(/C=C/c2cccc3cc(NS(=O)(=O)C(F)(F)F)ccc23)c1 | 5.18 | – | – | < 4.30
37 | O=S(=O)(Nc1ccc2c(/C=C/c3ccc(Cl)cc3)cccc2c1)C(F)(F)F | 5.37 | – | – | < 4.30
